Patent publication US9695155B2, “Herbicidal substituted pyrimidinyloxy benzene compounds” (E. I. DU PONT DE NEMOURS AND COMPANY, priority 2013, dated 2017)

Experiments:
barnyardgrass [1] = assay: Test A preemergence; type: in vivo, Echinochloa crus-galli
Method in brief: (§1)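 Scoring: eye-based comparison with untreated controls, 0 for no effect through 100 for complete control, at about day 10. Treatments: directed soil spray preemergence; foliar spray postemergence on 2–10 cm plants at the one- to two-leaf stage. Medium: loam soil with sand.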

large (Lg) crabgrass [2] = assay: Test A preemergence; type: in vivo, Digitaria sanguinalis
Method in brief: as §1

giant foxtail [3] = assay: Test A preemergence; type: in vivo, Setaria faberii
Method in brief: as §1

morningglory [4] = assay: Test A preemergence; type: in vivo, Ipomoea spp.
Method in brief: as §1

pigweed [5] = assay: Test A preemergence; type: in vivo, Amaranthus retroflexus
Method in brief: as §1

velvetleaf [6] = assay: Test A preemergence; type: in vivo, Abutilon theophrasti
Method in brief: as §1

wheat [7] = assay: Test A preemergence; type: in vivo, Triticum aestivum
Method in brief: as §1

corn [8] = assay: Test A preemergence; type: in vivo, Zea mays
Method in brief: as §1

barnyardgrass [9] = assay: Test A postemergence; type: in vivo, Echinochloa crus-galli
Method in brief: as §1

large (Lg) crabgrass [10] = assay: Test A postemergence; type: in vivo, Digitaria sanguinalis
Method in brief: as §1

giant foxtail [11] = assay: Test A postemergence; type: in vivo, Setaria faberii
Method in brief: as §1

morningglory [12] = assay: Test A postemergence; type: in vivo, Ipomoea spp.
Method in brief: as §1

pigweed [13] = assay: Test A postemergence; type: in vivo, Amaranthus retroflexus
Method in brief: as §1

velvetleaf [14] = assay: Test A postemergence; type: in vivo, Abutilon theophrasti
Method in brief: as §1

wheat [15] = assay: Test A postemergence; type: in vivo, Triticum aestivum
Method in brief: as §1

corn [16] = assay: Test A postemergence; type: in vivo, Zea mays
Method in brief: as §1

rice = assay: Test B flooded paddy test; type: in vivo, Oryza sativa; conditions: Flood, 250 g ai/ha, 0 to 100 scale where 0 is no effect and 100 is complete control
Method in brief: (§2)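 2-leaf stage plants; pots flooded to 3 cm, compound added to paddy water, depth maintained. Greenhouse 13–15 d. Visual rating vs untreated controls, 0 (no effect) to 100 (complete control); dash = no result.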

sedge, umbrella = assay: Test B flooded paddy test; type: in vivo, Cyperus difformis; conditions: Flood, 250 g ai/ha, 0 to 100 scale where 0 is no effect and 100 is complete control
Method in brief: as §2

Heteranthera limosa = assay: Test B flooded paddy test; type: in vivo; conditions: Flood, 250 g ai/ha, 0 to 100 scale where 0 is no effect and 100 is complete control
Method in brief: as §2

barnyardgrass [17] = assay: Test B flooded paddy test; type: in vivo, Echinochloa crus-galli; conditions: Flood, 250 g ai/ha, 0 to 100 scale where 0 is no effect and 100 is complete control
Method in brief: as §2

[18] = 125 g ai/ha, 0 to 100 scale where 0 is no effect and 100 is complete control
[19] = 500 g ai/ha, 0 to 100 scale, 0 no effect, 100 complete control, approx. 10 days
[20] = 500 g ai/ha, 0 to 100 scale, 0 no effect, 100 complete control

## Clc1cnc(Oc2cc(Cl)ccc2-n2cc(Br)cn2)nc1 [Compound 51]
Barnyardgrass [1]; [18]
  Plant response rating, Barnyardgrass: 20
Barnyardgrass [1]; [19]
  Barnyardgrass plant response rating: 30
Large (Lg) crabgrass [2]; [18]
  Plant response rating, Crabgrass, Large: 40
Large (Lg) crabgrass [2]; [19]
  Crabgrass, Large plant response rating: 90
Giant foxtail [3]; [18]
  Plant response rating, Foxtail, Giant: 20
Giant foxtail [3]; [19]
  Foxtail, Giant plant response rating: 80
Morningglory [4]; [18]
  Plant response rating, Morningglory: 0
Morningglory [4]; [19]
  Morningglory plant response rating: 0
Pigweed [5]; [18]
  Plant response rating, Pigweed: 10
Pigweed [5]; [19]
  Pigweed plant response rating: 80
Velvetleaf [6]; [18]
  Plant response rating, Velvetleaf: 0
Velvetleaf [6]; [19]
  Velvetleaf plant response rating: 0
Wheat [7]; [18]
  Plant response rating, Wheat: 0
Wheat [7]; [19]
  Wheat plant response rating: 0
Corn [8]; [18]
  Plant response rating, Corn: 0
Corn [8]; [19]
  Corn plant response rating: 0
Barnyardgrass [9]; [18]
  Plant response rating, Barnyardgrass: 0
Barnyardgrass [9]; [20]
  Plant response rating, Barnyardgrass: 10
Large (Lg) crabgrass [10]; [18]
  Plant response rating, Crabgrass, Large: 0
Large (Lg) crabgrass [10]; [20]
  Plant response rating, Crabgrass, Large: 20
Giant foxtail [11]; [18]
  Plant response rating, Foxtail, Giant: 0
Giant foxtail [11]; [20]
  Plant response rating, Foxtail, Giant: 10
Morningglory [12]; [18]
  Plant response rating, Morningglory: 10
Morningglory [12]; [20]
  Plant response rating, Morningglory: 20
Pigweed [13]; [18]
  Plant response rating, Pigweed: 30
Pigweed [13]; [20]
  Plant response rating, Pigweed: 70
Velvetleaf [14]; [18]
  Plant response rating, Velvetleaf: 50
Velvetleaf [14]; [20]
  Plant response rating, Velvetleaf: 60
Wheat [15]; [18]
  Plant response rating, Wheat: 0
Wheat [15]; [20]
  Plant response rating, Wheat: 0
Corn [16]; [18]
  Plant response rating, Corn: 0
Corn [16]; [20]
  Plant response rating, Corn: 20
rice
  Plant response rating, Rice: 0
sedge, umbrella
  Plant response rating, Sedge, Umbrella: 65
Heteranthera limosa
  Plant response rating, Ducksalad: 40
Barnyardgrass [17]
  Plant response rating, Barnyardgrass: 0

## Clc1cnc(Oc2ccccc2-n2ncc(Br)n2)nc1 [Compound 54, 2-[2-(4-bromo-2H-1,2,3-triazol-2-yl)phenoxy]-5-chloropyrimidine]
Barnyardgrass [1]; Echinochloa crus-galli, pre-emergence, 240 h, 1000 g ai/ha, 0 to 100 scale, 0 no effect, 100 complete control, read-out: Plant response rating, Barnyardgrass
  pest or weed control at 1000 g/ha: 0%
Large (Lg) crabgrass [2]; Digitaria sanguinalis, pre-emergence, 240 h, 1000 g ai/ha, 0 to 100 scale, 0 no effect, 100 complete control, read-out: Plant response rating, Crabgrass, Large
  pest or weed control at 1000 g/ha: 100%
Giant foxtail [3]; Setaria faberi, pre-emergence, 240 h, 1000 g ai/ha, 0 to 100 scale, 0 no effect, 100 complete control, approx. 10 days, read-out: Foxtail, Giant plant response rating
  pest or weed control at 1000 g/ha: 100%
Morningglory [4]; Ipomoea, pre-emergence, 240 h, 1000 g ai/ha, 0 to 100 scale, 0 no effect, 100 complete control, approx. 10 days, read-out: Morningglory plant response rating
  pest or weed control at 1000 g/ha: 70%
Pigweed [5]; Amaranthus retroflexus, pre-emergence, 240 h, 1000 g ai/ha, 0 to 100 scale, 0 no effect, 100 complete control, approx. 10 days, read-out: Pigweed plant response rating
  pest or weed control at 1000 g/ha: 100%
Velvetleaf [6]; Abutilon theophrasti, pre-emergence, 240 h, 1000 g ai/ha, 0 to 100 scale, 0 no effect, 100 complete control, approx. 10 days, read-out: Velvetleaf plant response rating
  pest or weed control at 1000 g/ha: 100%
Wheat [7]; Triticum aestivum, pre-emergence, 240 h, 1000 g ai/ha, 0 to 100 scale, 0 no effect, 100 complete control, approx. 10 days, read-out: Wheat plant response rating
  plant injury at 1000 g/ha: 0%
Corn [8]; Zea mays, pre-emergence, 240 h, 1000 g ai/ha, 0 to 100 scale, 0 no effect, 100 complete control
  Corn plant response rating (crop injury, 0 = no effect, 100 = complete kill) at 1000 g/ha: 20%
Barnyardgrass [9]; Echinochloa crus-galli, post-emergence, 240 h, 1000 g ai/ha, 0 to 100 scale, 0 no effect, 100 complete control, read-out: Plant response rating Barnyardgrass
  pest or weed control at 1000 g/ha: 30%
Large (Lg) crabgrass [10]; Digitaria sanguinalis, post-emergence, 240 h, 1000 g ai/ha, 0 to 100 scale, 0 no effect, 100 complete control, read-out: Plant response rating Crabgrass, Large
  pest or weed control at 1000 g/ha: 100%
Giant foxtail [11]; Setaria faberi, post-emergence, 240 h, 1000 g ai/ha, 0 to 100 scale, 0 no effect, 100 complete control, read-out: Plant response rating Foxtail, Giant
  pest or weed control at 1000 g/ha: 70%
Morningglory [12]; Ipomoea, post-emergence, 240 h, 1000 g ai/ha, 0 to 100 scale, 0 no effect, 100 complete control, read-out: Plant response rating Morningglory
  pest or weed control at 1000 g/ha: 100%
Pigweed [13]; Amaranthus retroflexus, post-emergence, 240 h, 1000 g ai/ha, 0 to 100 scale, 0 no effect, 100 complete control, read-out: Plant response rating Pigweed
  pest or weed control at 1000 g/ha: 100%
Velvetleaf [14]; Abutilon theophrasti, post-emergence, 240 h, 1000 g ai/ha, 0 to 100 scale, 0 no effect, 100 complete control, read-out: Plant response rating Velvetleaf
  pest or weed control at 1000 g/ha: 80%
Wheat [15]; Triticum aestivum, post-emergence, 240 h, 1000 g ai/ha, 0 to 100 scale, 0 no effect, 100 complete control, read-out: Plant response rating Wheat
  plant injury at 1000 g/ha: 0%
Corn [16]; Zea mays, post-emergence, 240 h, 1000 g ai/ha, 0 to 100 scale, 0 no effect, 100 complete control, read-out: Plant response rating Corn
  plant injury at 1000 g/ha: 50%
rice; Oryza sativa, read-out: Plant response rating, Rice
  plant injury at 250 g/ha: 0%
sedge, umbrella; Cyperus difformis, read-out: Plant response rating, Sedge, Umbrella
  pest or weed control at 250 g/ha: 0%
Heteranthera limosa; Heteranthera limosa, read-out: Plant response rating, Ducksalad
  pest or weed control at 250 g/ha: 0%
Barnyardgrass [17]; Echinochloa crus-galli, read-out: Plant response rating, Barnyardgrass
  pest or weed control at 250 g/ha: 0%
